Columns and labels:
[1] = tested on: SN12C; assay: Antiproliferative activity against human SN12C cells assessed as growth inhibition after 48 hrs by sulforhodamine B assay; type: functional; settings: for CC50: read-out: LC50 (the source's name)
[2] = Antiproliferative activity against human SNB75 cells assessed as growth inhibition after 48 hrs by sulforhodamine B assay; type: functional; settings: SNB-75, 48 h; for CC50: read-out: LC50 (the source's name)
[3] = Antiproliferative activity against human RPMI8226 cells assessed as growth inhibition after 48 hrs by sulforhodamine B assay; type: functional; settings: RPMI-8226, 48 h
[4] = Antiproliferative activity against human UO31 cells assessed as growth inhibition after 48 hrs by sulforhodamine B assay; type: functional; settings: UO-31, 48 h; for CC50: read-out: LC50 (the source's name)
[5] = Antiproliferative activity against human OVCAR4 cells assessed as cell growth at 10^-8 M after 48 hrs by sulforhodamine B assay; type: functional; settings: OVCAR-4, 48 h, read-out: Activity
[6] = tested on: ACHN; assay: Antiproliferative activity against human ACHN cells assessed as cell growth at 10^-7 M after 48 hrs by sulforhodamine B assay; type: functional; settings: read-out: Activity
[7] = tested on: K562; assay: Antiproliferative activity against human K562 cells assessed as cell growth at 10^-6 M after 48 hrs by sulforhodamine B assay; type: functional; settings: K562, 48 h, read-out: Activity
[8] = Antiproliferative activity against human SNB75 cells assessed as cell growth at 10^-4 M after 48 hrs by sulforhodamine B assay; type: functional; settings: SNB-75, 48 h, read-out: Activity
[9] = Antiproliferative activity against human UO31 cells assessed as cell growth at 10^-6 M after 48 hrs by sulforhodamine B assay; type: functional; settings: UO-31, 48 h, read-out: Activity
[10] = tested on: NCI-H460; assay: Antiproliferative activity against human NCI-H460 cells assessed as cell growth at 10^-6 M after 48 hrs by sulforhodamine B assay; type: functional; settings: NCI-H460, 48 h, read-out: Activity
[11] = tested on: SK-MEL-2; assay: Antiproliferative activity against human SK-MEL-2 cells assessed as cell growth at 10^-4 M after 48 hrs by sulforhodamine B assay; type: functional; settings: SK-MEL-2, 48 h, read-out: Activity
[12] = Antiproliferative activity against human OVCAR3 cells assessed as cell growth at 10^-4 M after 48 hrs by sulforhodamine B assay; type: functional; settings: OVCAR-3, 48 h, read-out: Activity
[13] = Antiproliferative activity against human HCC2998 cells assessed as cell growth at 10^-6 M after 48 hrs by sulforhodamine B assay; type: functional; settings: HCC 2998, 48 h, read-out: Activity
[14] = Antiproliferative activity against human SF539 cells assessed as cell growth at 10^-4 M after 48 hrs by sulforhodamine B assay; type: functional; settings: SF-539, 48 h, read-out: Activity
[15] = tested on: SK-MEL-2; assay: Antiproliferative activity against human SK-MEL-2 cells assessed as cell growth at 10^-6 M after 48 hrs by sulforhodamine B assay; type: functional; settings: SK-MEL-2, 48 h, read-out: Activity
[16] = Antiproliferative activity against human HCT15 cells assessed as cell growth at 10^-7 M after 48 hrs by sulforhodamine B assay; type: functional; settings: HCT-15, 48 h, read-out: Activity
[17] = tested on: HT-29; assay: Antiproliferative activity against human HT-29 cells assessed as cell growth at 10^-7 M after 48 hrs by sulforhodamine B assay; type: functional; settings: HT-29, 48 h, read-out: Activity
[18] = tested on: SR; assay: Antiproliferative activity against human SR cells assessed as cell growth at 10^-7 M after 48 hrs by sulforhodamine B assay; type: functional; settings: read-out: Activity
[19] = Antiproliferative activity against human OVCAR4 cells assessed as cell growth at 10^-4 M after 48 hrs by sulforhodamine B assay; type: functional; settings: OVCAR-4, 48 h, read-out: Activity
[20] = tested on: HT-29; assay: Antiproliferative activity against human HT-29 cells assessed as cell growth at 10^-8 M after 48 hrs by sulforhodamine B assay; type: functional; settings: HT-29, 48 h, read-out: Activity
[21] = Antiproliferative activity against human Caki1 cells assessed as cell growth at 10^-6 M after 48 hrs by sulforhodamine B assay; type: functional; settings: CAKI-1, 48 h, read-out: Activity
[22] = tested on: T47D; assay: Antiproliferative activity against human T47D cells assessed as cell growth at 10^-6 M after 48 hrs by sulforhodamine B assay; type: functional; settings: read-out: Activity
[23] = tested on: HT-29; assay: Antiproliferative activity against human HT-29 cells assessed as cell growth at 10^-4 M after 48 hrs by sulforhodamine B assay; type: functional; settings: HT-29, 48 h, read-out: Activity
[24] = Antiproliferative activity against human UACC257 cells assessed as cell growth at 10^-4 M after 48 hrs by sulforhodamine B assay; type: functional; settings: UACC-257, 48 h, read-out: Activity
[25] = tested on: 786-0; assay: Antiproliferative activity against human 786-0 cells assessed as cell growth at 10^-6 M after 48 hrs by sulforhodamine B assay; type: functional; settings: 786-0, 48 h, read-out: Activity
[26] = Antiproliferative activity against human OVCAR5 cells assessed as cell growth at 10^-4 M after 48 hrs by sulforhodamine B assay; type: functional; settings: OVCAR-5, 48 h, read-out: Activity
[27] = Antiproliferative activity against human SKOV3 cells assessed as cell growth at 10^-7 M after 48 hrs by sulforhodamine B assay; type: functional; settings: SK-OV-3, 48 h, read-out: Activity
[28] = tested on: NCI-H23; assay: Antiproliferative activity against human NCI-H23 cells assessed as cell growth at 10^-8 M after 48 hrs by sulforhodamine B assay; type: functional; settings: NCI-H23, 48 h, read-out: Activity
[29] = tested on: CCRF-CEM; assay: Antiproliferative activity against human CCRF-CEM cells assessed as cell growth at 10^-6 M after 48 hrs by sulforhodamine B assay; type: functional; settings: read-out: Activity
[30] = tested on: MDA-MB-231; assay: Antiproliferative activity against human MDA-MB-231 cells assessed as cell growth at 10^-8 M after 48 hrs by sulforhodamine B assay; type: functional; settings: MDA-MB-231, 48 h, read-out: Activity
[31] = Antiproliferative activity against human NCI-ADR-RES cells assessed as cell growth at 10^-8 M after 48 hrs by sulforhodamine B assay; type: functional; settings: read-out: Activity
[32] = tested on: U-251; assay: Antiproliferative activity against human U251 cells assessed as cell growth at 10^-4 M after 48 hrs by sulforhodamine B assay; type: functional; settings: U-251, 48 h, read-out: Activity
[33] = tested on: KM12; assay: Antiproliferative activity against human KM12 cells assessed as cell growth at 10^-6 M after 48 hrs by sulforhodamine B assay; type: functional; settings: KM12, 48 h, read-out: Activity
[34] = tested on: SN12C; assay: Antiproliferative activity against human SN12C cells assessed as cell growth at 10^-7 M after 48 hrs by sulforhodamine B assay; type: functional; settings: read-out: Activity
[35] = tested on: Malme-3M; assay: Antiproliferative activity against human MALME-3M cells assessed as cell growth at 10^-6 M after 48 hrs by sulforhodamine B assay; type: functional; settings: read-out: Activity
[36] = molecular target: RAF proto-oncogene serine/threonine-protein kinase (Homo sapiens, UniProt P04049); assay: Inhibition of human CRAF at 10 uM measured after 40 mins by scintillation counting
RAF proto-oncogene serine/threonine-protein kinase, sequence (P04049 whole entry): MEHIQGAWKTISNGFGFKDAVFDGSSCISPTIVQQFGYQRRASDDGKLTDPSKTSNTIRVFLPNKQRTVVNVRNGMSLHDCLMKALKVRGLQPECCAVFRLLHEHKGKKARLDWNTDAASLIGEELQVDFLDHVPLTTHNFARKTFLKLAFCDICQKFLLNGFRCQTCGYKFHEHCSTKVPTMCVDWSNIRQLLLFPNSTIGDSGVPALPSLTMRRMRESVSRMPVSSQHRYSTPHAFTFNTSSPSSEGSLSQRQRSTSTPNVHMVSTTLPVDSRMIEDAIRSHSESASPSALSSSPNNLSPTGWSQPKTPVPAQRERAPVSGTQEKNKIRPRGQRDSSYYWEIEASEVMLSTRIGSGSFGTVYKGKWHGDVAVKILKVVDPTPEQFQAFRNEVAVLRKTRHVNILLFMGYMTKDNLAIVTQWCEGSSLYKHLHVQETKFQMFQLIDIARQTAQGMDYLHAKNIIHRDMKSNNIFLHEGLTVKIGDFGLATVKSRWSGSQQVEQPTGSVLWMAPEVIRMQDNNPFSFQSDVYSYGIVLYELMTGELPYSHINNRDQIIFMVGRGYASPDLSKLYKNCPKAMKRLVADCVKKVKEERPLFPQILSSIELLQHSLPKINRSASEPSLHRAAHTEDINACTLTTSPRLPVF

[37] = tested on: ACHN; assay: Antiproliferative activity against human ACHN cells assessed as cell growth at 10^-4 M after 48 hrs by sulforhodamine B assay; type: functional; settings: read-out: Activity

`CNC(=O)c1cc(Oc2ccc(NC(=O)Nc3ccc(Cl)c(C(F)(F)F)c3)cc2)ccn1` [SORAFENIB] showed a GI50 [1] of 2.51 µM, a TGI [1] of 10 µM and a CC50 [1] of 39.8 µM. The GI50 [2] was 3.16 µM, the TGI [2] was 10 µM and the CC50 [2] was 39.8 µM. The TGI [3] was 6.31 µM, the GI50 [4] was 2.51 µM and the TGI [4] was 7.94 µM. The CC50 [4] was 39.8 µM.
Molecule `CNC(=O)c1cc(Oc2ccc3nc(NC(=O)Nc4cc(C(F)(F)F)cc(C(F)(F)F)c4)sc3c2)ccn1` has a growth at 0.01 µM [5] of 88%, a growth at 0.1 µM [6] of 99% and a growth at 1 µM [7] of 44%. The growth at 100 µM [8] was -75%, the growth at 1 µM [9] was 65% and the GI50 [1] was 1.64 µM. The TGI [1] was 3.79 µM, the CC50 [1] was 8.76 µM and the growth at 1 µM [10] was 62%. The growth at 100 µM [11] was -75%, the growth at 100 µM [12] was -89% and the growth at 1 µM [13] was 66%. The GI50 [2] was 1 µM, the TGI [2] was 2.7 µM and the CC50 [2] was 7.26 µM. The growth at 100 µM [14] was -77%, the growth at 1 µM [15] was 52% and the growth at 0.1 µM [16] was 100%. For the same molecule, the growth at 0.1 µM [17] was 97%, the GI50 [3] was 1.02 µM and the LC50 [3] was 76.3 µM. It also gave a TGI [3] of 3.81 µM, a growth at 0.1 µM [18] of 91% and a growth at 100 µM [19] of -57%. It also gave a growth at 0.01 µM [20] of 97%, a growth at 1 µM [21] of 58% and a growth at 1 µM [22] of 32%. For the same molecule, the growth at 100 µM [23] was -82%, the growth at 100 µM [24] was -94% and the growth at 1 µM [25] was 75%. It also gave a growth at 100 µM [26] of -74%, a GI50 [4] of 1.26 µM and a TGI [4] of 2.68 µM. The CC50 [4] was 5.71 µM, the growth at 0.1 µM [27] was 99% and the growth at 0.01 µM [28] was 93%. It also gave a growth at 1 µM [29] of 52%, a growth at 0.01 µM [30] of 103% and a growth at 0.01 µM [31] of 101%. It also gave a growth at 100 µM [32] of -100%, a growth at 1 µM [33] of 25% and a growth at 0.1 µM [34] of 104%. For the same molecule, the growth at 1 µM [35] was 48%, the inhibition [36] was 77% and the growth at 100 µM [37] was -80%.
